Source: PubChem BioAssay AID248 (DTP/NCI, 2004)
“And” between values parts separate entries of the source, which are not always exact repeats. Identical values can stand only once. Inconclusive results and toxic doses are left out. Cut-off read from the data, not from the text of the source: active = T/C of 150% or more; inactive = T/C below 125%.

Test system: L1210 leukemia ip in BDF1 mice, survival T/C
Experiment: NCI In Vivo Anticancer Drug Screen. Data for tumor model L1210 Leukemia (intraperitoneal) in B6D2F1 (BDF1) mice
Conditions: endpoint: mean survival time, higher = longer survival
How it was run: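 Mice bearing the transplanted tumor received compound or vehicle. Survival of the treated group was divided by that of the vehicle-treated control group to give the ratio.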

[1] = dose: 100.0 mg/kg/injection, schedule: Q01DX001 (ip), vehicle: saline
[2] = dose: 100.0 mg/kg/injection, schedule: Q04DX003 (ip), vehicle: saline with Tween-80
[3] = dose: 200.0 mg/kg/injection, schedule: Q04DX003 (ip), vehicle: saline with Tween-80
[4] = dose: 400.0 mg/kg/injection, schedule: Q04DX003 (ip), vehicle: saline with Tween-80
[5] = dose: 100.0 mg/kg/injection, schedule: Q04DX003 (ip), vehicle: saline
[6] = dose: 50.0 mg/kg/injection, schedule: Q01DX001 (ip), vehicle: saline
[7] = dose: 100.0 mg/kg/injection, schedule: Q04DX003 (ip), vehicle: Klucel (hydroxypropylcellulose) (HPC)
[8] = dose: 200.0 mg/kg/injection, schedule: Q04DX003 (ip), vehicle: Klucel (hydroxypropylcellulose) (HPC)
[9] = dose: 400.0 mg/kg/injection, schedule: Q04DX003 (ip), vehicle: Klucel (hydroxypropylcellulose) (HPC)
[10] = dose: 100.0 mg/kg/injection, schedule: Q04DX003 (ip), vehicle: gum acacia
[11] = dose: 200.0 mg/kg/injection, schedule: Q01DX009 (ip), vehicle: gum acacia
[12] = dose: 200.0 mg/kg/injection, schedule: Q04DX003 (ip), vehicle: gum acacia
[13] = dose: 400.0 mg/kg/injection, schedule: Q01DX009 (ip), vehicle: gum acacia
[14] = dose: 400.0 mg/kg/injection, schedule: Q04DX003 (ip), vehicle: gum acacia
[15] = dose: 75.0 mg/kg/injection, schedule: Q01DX001 (ip), vehicle: saline

Measured: T/C

CCN(CC)CC(O)COc1ccccc1C (configuration not stated)
inactive: dose: 5.0 mg/kg/injection, schedule: Q01DX001 (ip), vehicle: saline 101 % of control | dose: 10.0 mg/kg/injection, schedule: Q01DX001 (ip), vehicle: saline 101 % of control | dose: 20.0 mg/kg/injection, schedule: Q01DX001 (ip), vehicle: saline 104 % of control | dose: 40.0 mg/kg/injection, schedule: Q01DX001 (ip), vehicle: saline 104 % of control | dose: 80.0 mg/kg/injection, schedule: Q01DX001 (ip), vehicle: saline 101 % of control | [1] 102 % of control

Cn1nc(NC(=O)C(F)(F)F)c2nccnc21
inactive: dose: 100.0 mg/kg/injection, schedule: Q01DX009 (ip), vehicle: saline with Tween-80 95 % of control | [2] 100 % of control | dose: 200.0 mg/kg/injection, schedule: Q01DX009 (ip), vehicle: saline with Tween-80 94 % of control | [3] 101 % of control | [4] 108 % of control

CC1(C)[C@@H]2CC[C@@]1(CS(=O)(=O)O)C(=O)C2
inactive: dose: 100.0 mg/kg/injection, schedule: Q04DX002 (ip), vehicle: other 95 % of control | dose: 200.0 mg/kg/injection, schedule: Q04DX002 (ip), vehicle: other 92 % of control

C=CCN1CCCC1=O
inactive: [5] 95 % of control | dose: 200.0 mg/kg/injection, schedule: Q04DX003 (ip), vehicle: saline 96 % of control | dose: 400.0 mg/kg/injection, schedule: Q04DX003 (ip), vehicle: saline 95 % of control

O=C(COCC(=O)N/N=C/C=C/c1ccccc1)N/N=C/C=C/c1ccccc1
inactive: dose: 100.0 mg/kg/injection, schedule: Q01DX009 (ip), vehicle: Klucel (hydroxypropylcellulose) (HPC) 96 % of control | dose: 200.0 mg/kg/injection, schedule: Q01DX009 (ip), vehicle: Klucel (hydroxypropylcellulose) (HPC) 104 % of control | dose: 400.0 mg/kg/injection, schedule: Q01DX009 (ip), vehicle: Klucel (hydroxypropylcellulose) (HPC) 95 % of control

Oc1ccc(C=NCCN=Cc2ccc(O)cc2)cc1
inactive: dose: 100.0 mg/kg/injection, schedule: Q01DX001 (ip), vehicle: other 103 % of control | dose: 200.0 mg/kg/injection, schedule: Q01DX001 (ip), vehicle: other 103 % of control | dose: 400.0 mg/kg/injection, schedule: Q01DX001 (ip), vehicle: other 103 % of control

Oc1c(CN2CCCC2)cc(Nc2nccc(/C=C/c3ccc(Cl)cc3)n2)cc1CN1CCCC1
inactive: dose: 25.0 mg/kg/injection, schedule: Q04DX003 (ip), vehicle: saline 96 % of control | [6] 96 % of control | dose: 50.0 mg/kg/injection, schedule: Q04DX003 (ip), vehicle: saline 96 % of control | [1] 93 % of control | [5] 90 % of control

Cc1cccc2nc3nc(Cl)c(Cl)nc3n12
inactive: dose: 75.0 mg/kg/injection, schedule: Q01DX001 (ip), vehicle: acetone 98 % of control | dose: 150.0 mg/kg/injection, schedule: Q01DX001 (ip), vehicle: acetone 101 % of control | dose: 300.0 mg/kg/injection, schedule: Q01DX001 (ip), vehicle: acetone 92 % of control

Cc1nc(Br)c([N+](=O)[O-])[nH]1
inactive: dose: 100.0 mg/kg/injection, schedule: Q01DX001 (ip), vehicle: saline with Tween-80 95 % of control | dose: 200.0 mg/kg/injection, schedule: Q01DX001 (ip), vehicle: saline with Tween-80 114 % of control | dose: 400.0 mg/kg/injection, schedule: Q01DX001 (ip), vehicle: saline with Tween-80 97 % of control

Cc1cc(C)c(C(N)=O)c(N)n1
inactive: [7] 105 % of control | [8] 90 % of control | [9] 106 % of control

CCCCCCCCC[n+]1ccc(C(N)=O)cc1
inactive: [2] 98 % of control

COc1cc(CNCc2cc(OC)c(OC)c(OC)c2)cc(OC)c1OC
inactive: [6] 102 % of control | [1] 102 % of control

CCCCOC(=O)Cc1cccc2ccccc12
inactive: dose: 222.0 mg/kg/injection, schedule: Q01DX Z (ip), vehicle: methylcellulose (MC) 102 % of control | dose: 333.0 mg/kg/injection, schedule: Q01DX Z (ip), vehicle: methylcellulose (MC) 110 % of control | dose: 500.0 mg/kg/injection, schedule: Q01DX Z (ip), vehicle: methylcellulose (MC) 104 % of control

O=C(O)Cc1c(O)ccc2ccccc12
inactive: dose: 100.0 mg/kg/injection, schedule: Q01DX009 (ip), vehicle: gum acacia 92 % of control | [10] 97 % of control | [11] 90 % of control | [12] 92 % of control | [13] 98 % of control | [14] 90 % of control

NC(=O)C1C(=O)c2cccc3c2C1CCCC3 (configuration not stated)
inactive: dose: 100.0 mg/kg/injection, schedule: Q01DX001 (ip), vehicle: carboxymethylcellulose (CMC) 90 % of control | dose: 200.0 mg/kg/injection, schedule: Q01DX001 (ip), vehicle: carboxymethylcellulose (CMC) 95 % of control | dose: 400.0 mg/kg/injection, schedule: Q01DX001 (ip), vehicle: carboxymethylcellulose (CMC) 92 % of control

Nc1nc(N)c(-c2ccc(Cl)c(Cl)c2)c(C[P+](c2ccccc2)(c2ccccc2)c2ccccc2)n1
inactive: [15] 97 % of control

Cc1c(Cl)cccc1NC(=O)N(C)Cc1ccccc1
inactive: dose: 50.0 mg/kg/injection, schedule: Q01DX009 (ip), vehicle: saline with Tween-80 109 % of control and 120 % of control | dose: 100.0 mg/kg/injection, schedule: Q04DX002 (ip), vehicle: saline with Tween-80 104 % of control and 110 % of control | [2] 97 % of control | dose: 200.0 mg/kg/injection, schedule: Q04DX002 (ip), vehicle: saline with Tween-80 100 % of control and 104 % of control | [3] 106 % of control | dose: 400.0 mg/kg/injection, schedule: Q04DX002 (ip), vehicle: saline with Tween-80 100 % of control and 103 % of control | [4] 101 % of control

CC(C)(N)CC(=O)Oc1ccccc1
inactive: dose: 37.5 mg/kg/injection, schedule: Q04DX003 (ip), vehicle: saline 97 % of control | [15] 104 % of control | dose: 150.0 mg/kg/injection, schedule: Q01DX001 (ip), vehicle: saline 101 % of control | dose: 150.0 mg/kg/injection, schedule: Q04DX003 (ip), vehicle: saline 92 % of control

Nc1nc(=S)[nH]c(N)c1N
inactive: dose: 125.0 mg/kg/injection, schedule: Q01DX Z (ip), vehicle: methylcellulose (MC) 93 % of control

CCCCC(CC)(CCC)CCN (configuration not stated)
inactive: dose: 5.0 mg/kg/injection, schedule: Q01DX001 (ip), vehicle: carboxymethylcellulose (CMC) 100 % of control | dose: 10.0 mg/kg/injection, schedule: Q01DX001 (ip), vehicle: carboxymethylcellulose (CMC) 110 % of control | dose: 20.0 mg/kg/injection, schedule: Q01DX001 (ip), vehicle: carboxymethylcellulose (CMC) 100 % of control

C(=NC(c1ccccc1)(c1ccccc1)c1ccccc1)=NC(c1ccccc1)(c1ccccc1)c1ccccc1
inactive: dose: 25.0 mg/kg/injection, schedule: Q01DX009 (ip), vehicle: gum acacia 88 % of control | dose: 50.0 mg/kg/injection, schedule: Q01DX009 (ip), vehicle: gum acacia 90 % of control | [10] 93 % of control | [11] 88 % of control | [12] 91 % of control | [13] 88 % of control | [14] 86 % of control

CCN(CC)c1cccc(N)c1
inactive: dose: 25.0 mg/kg/injection, schedule: Q01DX009 (sc), vehicle: olive oil, sesame oil, peanut oil 100 % of control | dose: 50.0 mg/kg/injection, schedule: Q01DX009 (sc), vehicle: olive oil, sesame oil, peanut oil 104 % of control | dose: 100.0 mg/kg/injection, schedule: Q01DX009 (sc), vehicle: olive oil, sesame oil, peanut oil 114 % of control | dose: 100.0 mg/kg/injection, schedule: Q04DX003 (sc), vehicle: olive oil, sesame oil, peanut oil 110 % of control

O=C(O)c1ccc(S(=O)(=O)c2ccc(C(=O)O)cc2)cc1
inactive: [7] 103 % of control | [8] 97 % of control | [9] 88 % of control

COC(=O)/C=C\C(=O)OC
inactive: [7] 95 % of control | [8] 100 % of control | [9] 100 % of control

O/N=C(/C(=N/O)c1ccccc1)c1ccccc1.O/N=C(/C(=N/O)c1ccccc1)c1ccccc1.[Pd]
inactive: dose: 50.0 mg/kg/injection, schedule: Q04DX002 (ip), vehicle: Klucel (hydroxypropylcellulose) (HPC) 106 % of control | dose: 100.0 mg/kg/injection, schedule: Q04DX002 (ip), vehicle: Klucel (hydroxypropylcellulose) (HPC) 95 % of control | dose: 200.0 mg/kg/injection, schedule: Q04DX002 (ip), vehicle: Klucel (hydroxypropylcellulose) (HPC) 103 % of control
